From PubChem BioAssay (NCI)
Values joined by “and” are separate entries in the source; they are usually repeats but may differ in a detail not shown here. Identical values can stand only once.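 All cell lines were grown in 96-well plates and treated with compound for 48 hours. At the GI50, growth is halved. At the TGI there is no net growth.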

Tests used:
Test in all cases: NCI-60 cell line screen, 48 h
IGROV1 ovarian = test system: IGROV1 ovarian
MDA-MB-435 = test system: MDA-MB-435
MOLT-4 leukemia = test system: MOLT-4 leukemia
SK-MEL-28 melanoma = test system: SK-MEL-28 melanoma
SK-MEL-5 melanoma = test system: SK-MEL-5 melanoma
SK-OV-3 ovarian = test system: SK-OV-3 ovarian
SN12C renal = test system: SN12C renal
SW-620 colon = test system: SW-620 colon
T-47D breast = test system: T-47D breast
U251 CNS = test system: U251 CNS

| SMILES | TGI (IGROV1 ovarian) [µM] | TGI (MDA-MB-435) | TGI (MOLT-4 leukemia) [µM] | TGI (SK-MEL-28 melanoma) [µM] | TGI (SK-MEL-5 melanoma) [µM] | TGI (SK-OV-3 ovarian) | TGI (SN12C renal) [µM] | TGI (SW-620 colon) [µM] | TGI (T-47D breast) [µM] | TGI (U251 CNS) [µM] | GI50 (MDA-MB-435) | GI50 (SK-MEL-5 melanoma) | GI50 (SK-OV-3 ovarian) | GI50 (SW-620 colon) | GI50 (T-47D breast) [µM] | GI50 (IGROV1 ovarian) | GI50 (MOLT-4 leukemia) | GI50 (SK-MEL-28 melanoma) [µM] | GI50 (SN12C renal) [µM] | GI50 (U251 CNS) [µM] |
| --- | --- | --- | --- | --- | --- | --- | --- | --- | --- | --- | --- | --- | --- | --- | --- | --- | --- | --- | --- | --- |
| C[C@]12CC[C@@H]3c4ccc(O)cc4CC[C@H]3[C@@H]1C/C(=C\c1ccc(C#N)cc1)C2=O | > 100 | 76.8 µM | > 100 | > 100 | > 100 | > 100 µM | > 100 | > 100 | > 100 | > 100 | – | – | – | – | – | – | – | – | – | – |
| CC1(C)OC2COC3([C@@H]4OC(C)(C)O[C@@H]4CO)OC(C)(C)OC3C2O1 (some centres not stated) | > 100 | > 100 µM | – | > 100 | > 100 | – | > 100 | > 100 | > 100 | > 100 | – | – | – | – | – | – | – | – | – | – |
| CON(C)C(=O)C1CCCO1 (configuration not stated) | > 100 | > 100 µM | > 100 | > 100 | > 100 | > 100 µM | > 100 | > 100 | > 100 | > 100 | – | – | – | – | – | – | – | – | – | – |
| O=c1c2ccccc2sc2ccccc12 | > 100 | > 100 µM | > 100 | > 100 | > 100 | > 100 µM | > 100 | > 100 | > 100 | > 100 | – | – | – | – | – | – | – | – | – | – |
| CCOC(=O)c1ccc(Nc2nc3ccc(C(F)(F)F)cc3nc2C(=O)OCC)cc1 | > 100 | > 100 µM | > 100 | > 100 | > 100 | > 100 µM | > 100 | > 100 | > 100 | > 100 | – | – | – | – | – | – | – | – | – | – |
| CC1(C)CC(C#Cc2ccccc2)CC(C)(C)N1O | > 100 | 44.6 µM | > 100 | 32.8 | 30.7 | > 100 µM | 28.8 | 50.5 | 63.8 | 64.6 | – | – | – | – | – | – | – | – | – | – |
| COc1cc(C(O)c2ccc3c(c2)OCO3)cc(OC)c1OC (configuration not stated) | > 100 | > 100 µM | > 100 | > 100 | > 100 | > 100 µM | > 100 | > 100 | > 100 | > 100 | – | – | – | – | – | – | – | – | – | – |
| CCOC(=O)c1sc2ncnc(N)c2c1C | > 100 | > 100 µM | > 100 | > 100 | > 100 | > 100 µM | > 100 | > 100 | > 100 | > 100 | – | – | – | – | – | – | – | – | – | – |
| CC(C)/C(Cl)=N/OC(=O)Nc1ccc(OC(F)(F)F)cc1 | 30.5 | 25.3 µM | > 77.9 | 26.6 | 21.3 | 31.9 µM | 31.7 | 3.27 | 25.8 | 31.2 | – | – | – | – | – | – | – | – | – | – |
| CC(=O)Oc1c(C)c(C)c2c(c1C)CCC(C)(CC(=O)OCCCCCCCCCCC[P+](c1ccccc1)(c1ccccc1)c1ccccc1)O2 (configuration not stated) | – | 1.2 µM | – | – | 0.359 | 0.932 µM | – | 1.33 | 0.736 | – | 0.31 µM | 0.191 µM | 0.264 µM | 0.315 µM | 0.0727 | – | – | – | – | – |
| COc1ccc(-n2nc(C)c3c(Nc4ccc(NC(=O)Nc5ccc(Cl)c(C(F)(F)F)c5)cc4)ncnc32)cc1 | 7.23 | 4.17 µM | 7.49 | 3.98 | 3.23 | 6.27 µM | 9.37 | 4.35 | 5.41 | 3.08 | 1.92 µM | 1.72 µM | 2.42 µM | 1.9 µM | 1.71 | 2.23 µM | 1.82 µM | 1.8 | 2.63 | 1.15 |
| CN(C)c1cccc2c1C(=O)C=CC21c2ccc(N(C)C)c3c(N(C)C)ccc(c23)C(c2ccccc2)C1c1ccccc1 (configuration not stated) | 29.3 | 30.2 µM | 6.82 | 37.5 | 27.5 | 31.8 µM | 32.7 | 54 | – | 25.8 | – | – | – | – | – | – | – | – | – | – |
| O=S1(=O)C[C@@H](NCc2ccccc2)[C@H](NCc2ccccc2)C1 | > 100 | > 100 µM | > 100 | > 100 | > 100 | > 100 µM | > 100 | > 100 | > 100 | > 100 | – | – | – | – | – | – | – | – | – | – |
| C=CCN1C(=O)/C(=C/c2ccc(C)cc2)N=C1SC1OC(COC(C)=O)C(OC(C)=O)C(OC(C)=O)C1OC(C)=O (configuration not stated) | > 100 | > 100 µM and 21.4 µM | > 100 | > 100 | > 100 | > 100 µM and 85.4 µM | > 100 | > 100 | > 100 | > 100 | > 70.6 µM and 7.32 µM | 11.2 µM and 32.9 µM | > 100 µM and 28.9 µM | > 100 µM and 39.1 µM | – | > 100 µM and 24.7 µM | > 59.9 µM and 14.6 µM | – | – | – |
| O=C1/C(=C/c2cccc([N+](=O)[O-])c2)Sc2scc(-c3ccc([N+](=O)[O-])cc3)[n+]21 | 53.6 | 37.5 µM | > 100 | 62.3 | > 100 | 90.5 µM | 40.9 | > 100 | > 100 | > 100 | – | – | – | – | – | – | – | – | – | – |
| CCOC(=O)NC(Nc1c(F)c(F)c(F)c(F)c1F)(C(F)(F)F)C(F)(F)F | > 100 | > 100 µM | > 100 | > 100 | > 100 | > 100 µM | > 100 | > 100 | > 100 | > 100 | – | – | – | – | – | – | – | – | – | – |
| O=C1OC(c2ccccc2)N(C(=O)c2ccccc2)C1Cc1ccc(OCc2ccccc2)cc1 (configuration not stated) | > 100 | > 100 µM | – | > 100 | > 100 | > 100 µM | > 100 | > 100 | > 100 | > 100 | – | – | – | – | – | – | – | – | – | – |
| COc1ccc2c(c1)c(=O)c1c(NCCNCCO)ccc3c(=O)n(CCN(C)C)c(=O)n2c31 | 1.46 | 0.305 µM | > 100 | 1.34 | 0.598 | 2.71 µM | 0.64 | 5.94 | 0.541 | 0.937 | – | – | – | – | – | – | – | – | – | – |
| CC(C)[Si](OC/C(=C/COC(C)(C)C)[C@H]1CC=C(C(=O)c2ccccc2N2CN(C)C(=O)N(C)C2)C1)(C(C)C)C(C)C | 25.6 | 30.3 µM | 1.67 | 12.9 | 23.1 | 31.2 µM | 24.9 | 6.61 | 23.6 | 23 | – | – | – | – | – | – | – | – | – | – |
